Results as given in PubChem BioAssay (NCI).
Values joined by “and” are separate entries in the source; they are usually repeats but may differ in a detail not shown here. Equal values may be shown once.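 48-hour exposure; five concentrations; linearly interpolated endpoints. At the GI50, growth is halved. Definition used: TGI = concentration required for complete inhibition of growth.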

What was measured:
Assay in all cases: DTP human tumour cell line panel, 48 h
SW-620 colon = test system: SW-620 colon
DU-145 prostate = test system: DU-145 prostate
SK-MEL-5 melanoma = test system: SK-MEL-5 melanoma
U251 CNS = test system: U251 CNS
KM12 colon = test system: KM12 colon
OVCAR-4 ovarian = test system: OVCAR-4 ovarian
HOP-62 NSCLC = test system: HOP-62 NSCLC
HL-60(TB) leukemia = test system: HL-60(TB) leukemia
ACHN renal = test system: ACHN renal
T-47D breast = test system: T-47D breast

| Structure (SMILES) | TGI (SW-620 colon) | TGI (DU-145 prostate) [µM] | TGI (SK-MEL-5 melanoma) | TGI (U251 CNS) | TGI (KM12 colon) | TGI (OVCAR-4 ovarian) | TGI (HOP-62 NSCLC) | TGI (HL-60(TB) leukemia) | TGI (ACHN renal) [µM] | TGI (T-47D breast) | GI50 (SW-620 colon) | GI50 (DU-145 prostate) | GI50 (SK-MEL-5 melanoma) | GI50 (U251 CNS) | GI50 (KM12 colon) | GI50 (OVCAR-4 ovarian) | GI50 (HOP-62 NSCLC) | GI50 (HL-60(TB) leukemia) | GI50 (ACHN renal) | GI50 (T-47D breast) |
| --- | --- | --- | --- | --- | --- | --- | --- | --- | --- | --- | --- | --- | --- | --- | --- | --- | --- | --- | --- | --- |
| C#CCNC(=O)NC(CCCCNC(=O)OCc1ccccc1)C(=O)OCc1ccccc1 (configuration not stated) | > 100 µM | > 100 | 35.1 µM | > 100 µM | > 100 µM | > 100 µM | > 100 µM | 46.7 µM | > 100 | > 32.4 µM | – | – | – | – | – | – | – | – | – | – |
| COc1ccc(OC)c(Cc2cnc3nc(N)nc(N)c3c2C)c1 | > 45.1 µM | > 59.8 | 93.8 µM | > 44.1 µM | 20.7 µM | 28.8 µM | 17.3 µM | 18.7 µM | 20.1 | 47.2 µM | – | – | – | – | – | – | – | – | – | – |
| NCc1ccc(-c2nc(-c3ccc(Cl)c(O)c3)c(-c3ccncc3)[nH]2)cc1 | > 25 µM | > 25 | > 25 µM | > 25 µM | > 25 µM | > 25 µM | > 25 µM | > 25 µM | > 25 | > 25 µM | 24.2 µM | > 25 µM | > 15.4 µM | > 25 µM | > 25 µM | > 25 µM | > 25 µM | 15.2 µM | > 25 µM | > 25 µM |
| Cn1c(C(=O)c2cccc3ccccc23)nc2ccccc21 | > 100 µM | > 100 | > 100 µM | > 100 µM | > 100 µM | > 100 µM | > 100 µM | > 100 µM | > 100 | > 100 µM | > 100 µM | > 100 µM | > 100 µM | > 100 µM | > 100 µM | 35.1 µM | > 100 µM | > 100 µM | > 100 µM | 22 µM |
| CN1C(=NCCO)NS(=O)(=O)c2ccccc21 | > 100 µM | > 100 | > 100 µM | > 100 µM | > 100 µM | > 100 µM | > 100 µM | > 100 µM | > 100 | > 100 µM | – | – | – | – | – | – | – | – | – | – |
| O=C1/C(=C/c2ccccc2[N+](=O)[O-])COc2ccc(O)cc21 | 1.81 µM | 4.29 | 4.07 µM | 8.74 µM | 4.31 µM | 8.63 µM | 19.3 µM | 5.68 µM | 2.13 | 17.6 µM | 0.448 µM | 1.72 µM | 1.76 µM | 2.41 µM | 1.85 µM | 1.9 µM | 5.21 µM | 1.76 µM | 0.74 µM | 2.36 µM |
| CN1CCCC1c1cccnc1.O=C(O)c1ccccc1O.O=C([O-])c1ccccc1[OH2+].O=C([O-])c1ccccc1[OH2+].[Mn+2] (configuration not stated) | > 100 µM | > 100 | > 100 µM | > 100 µM | > 100 µM | > 100 µM | > 100 µM | > 100 µM | > 100 | > 100 µM | 64.3 µM | > 100 µM | > 100 µM | > 100 µM | > 100 µM | > 100 µM | > 100 µM | > 100 µM | > 100 µM | > 100 µM |
| N#Cc1c(NC(=O)c2ccccc2F)sc2c1CCCC2 | > 25 µM | > 25 | > 25 µM | > 25 µM | > 25 µM | > 25 µM | > 25 µM | > 25 µM | > 25 | > 25 µM | 8.77 µM | > 25 µM | > 22 µM | > 25 µM | 5.12 µM | > 25 µM | > 25 µM | > 25 µM | > 25 µM | > 25 µM |
| N#CCNC(=O)c1ccc(-c2ccnc(Nc3ccc(N4CCOCC4)cc3)n2)cc1 | > 100 µM | > 100 | 38.7 µM | > 10 µM and 34.8 µM | > 74 µM | > 10 µM and 44.9 µM | > 10 µM and 16.4 µM | > 100 µM | > 37.1 | > 10 µM and 99.8 µM | 3.97 µM and 3.46 µM | 2.62 µM and 1.65 µM | 4.61 µM | 3.46 µM and 1.79 µM | 3.23 µM and 3.85 µM | 5.94 µM and 13.3 µM | 1.88 µM and 2.12 µM | 4.79 µM and 3.14 µM | 1.35 µM and 0.531 µM | > 10 µM and 9.94 µM |
| O=C(c1cc(Cc2n[nH]c(=O)c3ccccc23)ccc1F)N1CCN(C(=O)C2CC2)CC1 | > 100 µM | > 100 | > 100 µM | > 100 µM | > 100 µM | > 100 µM | > 100 µM | > 100 µM | > 100 | > 100 µM | 64.4 µM and > 94.1 µM | 33.5 µM and > 100 µM | 27.6 µM and 29.1 µM | 35.1 µM and 31.5 µM | > 100 µM | 22.7 µM and 36 µM | 43.2 µM | > 100 µM | 96.1 µM and 88.2 µM | 31.5 µM |
| Nc1nc(-c2ccc(Cl)cc2)nc2c1sc(=S)n2-c1ccccc1 | 82.9 µM | 18.9 | 10.1 µM | 11.9 µM | > 100 µM | 4.57 µM | 11.7 µM | > 100 µM | 3.82 | 5.54 µM | 6.45 µM | 4.36 µM | 2.91 µM | 3.5 µM | 5.4 µM | 1.95 µM | 3.4 µM | > 100 µM | 1.83 µM | 2.13 µM |
| C/C(=N\NC(=S)N1CCN(c2ccccn2)CC1)c1ncccn1 | 5.18 µM and 17.8 µM | 18.8 | 3.2 µM and 14.9 µM | 5.45 µM and 11.8 µM | 5.92 µM and 15.1 µM | 4.26 µM and 21.2 µM | 2.09 µM and 7.05 µM | 0.0274 µM and 0.103 µM | 12.1 | 18.5 µM | 0.038 µM | 3.17 µM | 0.269 µM | 0.0796 µM | 0.153 µM | 2.44 µM | 0.0865 µM | – | 0.0871 µM | – |
| Cc1ccc(Cl)cc1-n1c(C)nc2c(cnn2-c2ccnc3c(C(F)(F)F)cccc23)c1=O | > 100 µM | > 100 | > 100 µM | > 100 µM | > 100 µM | > 100 µM | > 100 µM | > 100 µM | > 100 | > 100 µM | > 100 µM | > 100 µM | > 100 µM | > 100 µM | > 100 µM | > 100 µM | > 100 µM | > 100 µM | > 100 µM | > 100 µM |
| COc1cc(C(=O)/C=C/c2c(C(F)(F)F)nc3ccccn23)cc(OC)c1OC | 4.24 µM | 3.51 | 3.23 µM | 3.31 µM | 3.64 µM | > 100 µM | 8.53 µM | > 100 µM | 3.79 | 15 µM | 1.68 µM | 1.61 µM | 1.62 µM | 1.29 µM | 1.73 µM | 4.1 µM | 2.97 µM | 4.12 µM | 1.95 µM | 3.52 µM |
| CN(C)CCCn1c2c(c3cc4c(cc3c1=O)OCO4)C(=O)c1ccccc1-2 | > 39.9 µM | > 27.5 | 7.07 µM | 3.5 µM | 14.5 µM | > 23.3 µM | 1.43 µM | 20.4 µM | 0.234 | > 100 µM | 0.85 µM | 3.08 µM | 1.93 µM | 0.081 µM | 2.89 µM | 0.715 µM | < 0.0318 µM | 3.35 µM | < 0.0213 µM | 22.7 µM |
| COc1ccc(-c2[nH]c3ccccc3c2/C=C(\C#N)S(=O)(=O)c2ccccc2)cc1 | > 100 µM | – | 2.73 µM | > 29.4 µM | 2.59 µM | > 31.8 µM | > 35.3 µM | 1.5 µM | > 100 | 6.15 µM | 0.503 µM | 0.447 µM | 0.343 µM | 0.462 µM | 0.374 µM | 0.559 µM | 0.958 µM | 0.287 µM | 1.91 µM | 0.53 µM |
| [Cl][Cu][Cl] | > 10 µM | > 10 | > 10 µM | > 10 µM | > 10 µM | > 10 µM | > 10 µM | > 10 µM | > 10 | > 10 µM | > 10 µM | > 10 µM | > 10 µM | > 10 µM | > 10 µM | > 10 µM | > 10 µM | > 10 µM | > 10 µM | > 10 µM |
| Nc1nc2ccccc2c2c1S(=O)(=O)c1ccc(Cl)cc1C2=O | 2.25 µM | > 50 | 30.9 µM | 18.3 µM | 13.3 µM | 10.8 µM | > 50 µM | 3.7 µM | > 50 | > 50 µM | 1.02 µM | 2.13 µM | 2.02 µM | 1.79 µM | 1.86 µM | 1.46 µM | 2.31 µM | 1.39 µM | 1.38 µM | 1.24 µM |
| CC(=O)N(O)c1ccc(/C=C/c2ccccc2)cc1 | > 100 µM | 2.52 | > 100 µM | 3.59 µM | 28.3 µM | > 82.1 µM | > 35.7 µM | > 100 µM | 2.08 | > 41.8 µM | 1.15 µM | 0.278 µM | 6.05 µM | 1.23 µM | 2.99 µM | 2.91 µM | 1.98 µM | 1.07 µM | 0.26 µM | 0.24 µM |
| c1ccc(CN2COc3c(ccc4c5c(ccc34)CN(Cc3ccccc3)CO5)C2)cc1 | > 100 µM | > 100 | > 100 µM | > 100 µM | > 100 µM | > 100 µM | > 100 µM | > 100 µM | > 100 | > 100 µM | – | – | – | – | – | – | – | – | – | – |
